Laboratory results taken from patent US20140205654A1, “LIPOSOMAL VANCOMYCIN FOR THE TREATMENT OF MRSA INFECTIONS” (CEDARS-SINAI MEDICAL CENTER, priority 2011, published 2014).
Values after ≈ are worked out from the molar mass of the structure shown.

Columns and labels:
Type in all cases: cell-based
MRSA strain NRS-35 [1] = assay: MBC determination; conditions: Staphylococcus aureus, read-out: Vancomycin MBC
Description: (§1) The MICs of free and liposomal antibiotics for all strains were determined by the broth dilution technique. Briefly, serial dilutions of free- or liposome-encapsulated antibiotic from 20 to 0.3 μg/ml were prepared. For bacterial suspensions, frozen stocks of MRSA were streaked on sheep blood agar plates. Single colonies were inoculated into fresh media and shaken for 20 hr at 37° C. The overnight bacteria were diluted and added to 96-well plates (Becton Dickinson) to achieve an approximate concentration of 1×10^5. The inocula were confirmed by plating on agar. The 96-well plates were then incubated with or without shaking at 37° C., and the lowest concentration of antibiotic formulations that inhibited visible growth of bacteria was determined after 24 hours (MIC). Incubation of the plates with shaking (at 200 rpm) increased the consistency of MIC measurement for the liposomal preparations. For determination of MBC, the broths used for MIC determination were plated on agar, and the first dilution at which 99.9% of the original inocula were killed was identified. All MIC and MBC assays were performed at least three times.

MRSA strain LAC [2] = assay: MBC determination; conditions: Staphylococcus aureus, read-out: Vancomycin MBC
Description: as §1

MRSA 80 = assay: MIC by broth dilution; conditions: Staphylococcus aureus, 24 h, read-out: Vancomycin MIC
Description: as §1

MRSA strain NRS-35 [3] = assay: MIC by broth dilution; conditions: Staphylococcus aureus, 24 h, read-out: Vancomycin MIC
Description: as §1

MRSA 81 = assay: MIC by broth dilution; conditions: Staphylococcus aureus, 24 h, read-out: Vancomycin MIC
Description: as §1

MRSA 78 = assay: MIC by broth dilution; conditions: Staphylococcus aureus, 24 h, read-out: Vancomycin MIC
Description: as §1

MRSA 83 = assay: MIC by broth dilution; conditions: Staphylococcus aureus, 24 h, read-out: Vancomycin MIC
Description: as §1

MRSA strain ATCC 43300 = assay: MIC by broth dilution; conditions: Staphylococcus aureus, 24 h, read-out: Vancomycin MIC
Description: as §1

MRSA strain LAC [4] = assay: MIC by broth dilution; conditions: Staphylococcus aureus, 24 h, read-out: Vancomycin MIC
Description: as §1

MRSA 79 = assay: MIC by broth dilution; conditions: Staphylococcus aureus, 24 h, read-out: Vancomycin MIC
Description: as §1

MRSA 82 = assay: MIC by broth dilution; conditions: Staphylococcus aureus, 24 h, read-out: Vancomycin MIC
Description: as §1

CN[C@H](CC(C)C)C(=O)N[C@H]1C(=O)N[C@@H](CC(N)=O)C(=O)N[C@H]2C(=O)N[C@H]3C(=O)N[C@H](C(=O)N[C@H](C(=O)O)c4cc(O)cc(O)c4-c4cc3ccc4O)[C@H](O)c3ccc(c(Cl)c3)Oc3cc2cc(c3O[C@@H]2O[C@H](CO)[C@@H](O)[C@H](O)[C@H]2O[C@H]2C[C@](C)(N)[C@H](O)[C@H](C)O2)Oc2ccc(cc2Cl)[C@H]1O [Free Vancomycin, Vancomycin]
MBC (MRSA strain NRS-35 [1]): 2.5 to 5 µg/mL (≈ 1.73 to 3.45 µM)
MBC (MRSA strain LAC [2]): 2.5 µg/mL (≈ 1.73 µM)
MIC (MRSA 80): 1.25 µg/mL (≈ 0.863 µM)
MIC (MRSA strain NRS-35 [3]): 2.5 µg/mL (≈ 1.73 µM)
MIC (MRSA 81): 1.25 µg/mL (≈ 0.863 µM)
MIC (MRSA 78): 1.25 µg/mL (≈ 0.863 µM)
MIC (MRSA 83): 1.25 µg/mL (≈ 0.863 µM)
MIC (MRSA strain ATCC 43300): 1.25 to 2.5 µg/mL (≈ 0.863 to 1.73 µM)
MIC (MRSA strain LAC [4]): 1.25 to 2.5 µg/mL (≈ 0.863 to 1.73 µM)
MIC (MRSA 79): 1.25 µg/mL (≈ 0.863 µM)
MIC (MRSA 82): 2.5 µg/mL (≈ 1.73 µM)
